Data as given in patent US10383885B2, “Method for treating or preventing dry eyes” (priority 2015, dated 2019).

Experiments:
[1] = tested on: NGF; test: Tear NGF protein expression in BAC induced dry eye mice (western blot); format: in vivo; settings: tear of BAC induced dry eye mice; eye drops 2, 5 or 10 μg/ml three times a day for 10 days
Method: Tear was collected from right eye of BAC induced dry eye mice by 10 μl PBS wash. Mice treated eyes drop of PBS as control and different concentration Compound A for 10 days. NGF protein was a positive control. 5 μl tear volume used in western blot.
The total protein concentration was determined by 1×Braford assay. To denature, use a loading buffer(7 ml 0.5M Tris pH6.8, 3 ml Glycerol, 1 g 10% SDS, 0.93 g DTT, […] 0.05% bromophenol blue, 10 ml), and boil the mixture at 95-100° C. for 5 minutes. Total protein was loaded 20-40 μg per mini-gel (12% SDS-polyacrylamide gel) well for electrophoresis. Then transfer the proteins into polyvinylidene difluoride membrane and blocking the membrane with 5-10% nonfat dried milk in TTBS. The membrane was incubated with the primary antibody overnight at 4° C. by shaking. Wash the membrane several times in TTBS to remove residual primary antibody. And the membrane was incubated with secondary antibody for 2 hours at room temperature.
The protein levels were determined by chemiluminescene detection system and analysis by Imagequant software. The results are shown in FIG. 4. *P<0.05, **P<0.01, ***P<0.001 compared to the control, Student's t-test. Data are expressed as mean±SD (n=4).

[2] = tested on: BAC induced dry eye mice; test: Benzalkonium chloride induced dry eye mice model (2), phenol red thread tear test; format: in vivo, Male BALB/c mice; settings: 0.3% BAC day 1 to 7; eye drops 5, 10 μg/ml thrice-daily, day 15 to 19; topical, right eye
Method: Benzalkonium Chloride Induced Dry Eye Mice Model (2)
(§1) Male BALB/c mice (9 weeks) was treated with thrice-daily (9:00, 13:30, 18:00) topical administration of 5 ul of 0.3% BAC in right eyes, mice was treated with PBS as control group, from day 1 to 7. And compound A (5, 10 μg/ml) was treated with thrice-daily (9:00, 13:30, 18:00) topical administration of 5 ul in right eyes, and PBS as control group, from day 15 to 19.
(§2) Phenol red thread tear test was used. The thread is yellow (acidic) and when it comes in contact with tears it changes to a light red color. Forceps were used to insert folded portion of the thread into the palpebral conjunctiva of the eye ⅓ of the distance from the lateral canthus of the lower eye lid. After 15 s, the thread was removed and the entire wet (Red) portion was measured. The phenol red thread test was on 14, 18, 20 day. The results are shown in FIG. 3. *P<0.05, **P<0.01 compared to the control, Student's t-test. Data are expressed as mean±SD (n=5-6).

[3] = tested on: Human Corneal Epithelial (HCE) cells; test: Benzalkonium chloride cell damage model in HCE cells (trypan blue cell count); format: cell-based; settings: HCE cells damaged with 0.0005% benzalkonium chloride for 24 hours, then 0.4, 2, 10 μg/ml compound for 48 hours
Method: Benzalkonium Chloride Cell Damage Model
The Human Corneal Epithelial (HCE) cells were seeded on a 6-well plate 5×10^5 cells with 10% FCS in DMEM/F12 for 24 hours. After cell attachment, medium was removed and changed into 0.0005% Benzalkonium chloride for 24 hours, then washed with PBS and treat with different concentrations 0.4, 2, 10 μg/ml of compound of Formula (I) (compound A) for 48 hours. At the end the cells were trypsinized and centrifuge 1000 rpm for 5 minutes, the supernatant was removed, added 1 ml of DMEM/F12 medium to resuspend the cells, followed by 0.4% trypan blue and the cell culture medium were 1:3 dilution, the number of cells were calculate under a microscope to observe the survivability of different concentrations treatment. The results are shown in FIG. 1. *P<0.05, **P<0.01 compared to the 0 μg/ml compound A group, Student's t-test. Data are expressed as mean±SD (n=3).

[4] = tested on: BAC induced dry eye mice; test: Benzalkonium chloride induced dry eye mice model (1), phenol red thread tear test; format: in vivo, Male BALB/c mice; settings: 0.3% BAC day 1 to 7; eye drops 2, 5 or 10 μg/ml three times a day, day 8 to 19; topical, right eye
Method: Benzalkonium Chloride Induced Dry Eye Mice Model (1)
as §1, with “mice (6” for “mice (9”, “A (2, 5,” for “A (5,”, “day 8” for “day 15”
as §2, with “7, 11, 15, 19” for “14, 18, 20”, “2.” for “3.”

Structure (SMILES): OC[C@H]1O[C@@H](Oc2c(O)cc(O)cc2/C=C/c2ccc(O)cc2)[C@H](O)[C@@H](O)[C@@H]1O [compound of Formula (I), 2,3,5,4′-tetrahydroxystilbene 2-O-β-D-glucopyranoside]
- NGF expression level [1]: increased the NGF gene expression level
- tear secretion [2]: improves tear secretion
- cell viability after BAC damage [3]: increased cell viability
- tear secretion [4]: restored tear secretion
